Tests used:
IMR90 ER:RAS cells [1] = test: Golgi dispersal by TGN46 staining, high throughput microscopy; type: cell-based, human; conditions: 4OHT-induced senescent cells; 7 days after addition of the drugs; FIGS. 10A-B
Procedure: (§1) Immunofluorescence staining was carried out by first fixing wells of 96 well plate at desired timepoint for 1 hour using 4% PFA (w/v, in PBS) followed by washing 3 times with PBS. Wells were then permeabilized using 0.2% Triton® X-100 (v/v, PBS) for 10 min or with 0.5% Triton® X-100 (v/v, PBS) for COPI staining. Wells were then washed twice with PBS to halt permeabilization and then non-specific antibody binding blocked by incubation with a blocking solution for 1 hour at RT. Blocking solution contained 1% BSA (w/v, PBS) supplemented with 0.4% Fish Skin Gelatin (v/v, PBS). Primary antibodies were diluted in respective blocking solution (see ‘Antibodies’ for dilutions), blocking solution removed from well and incubated with primary antibody solution for 1 hour at RT. For BrdU staining primary antibody solution is supplemented with 0.5 U/ul DNase (Sigma) and 1 mM MgCl2 and incubation times reduced to 30 minutes. […]
(§2) High content image analysis was carried out using the InCell Investigator 2.7.3 software (GE Healthcare®). […] Quantification for nuclear staining was measured as average pixel intensity (grey scale) for the wavelength of fluorophore across the area of the nuclear mask. Cytoplasmic staining quantification was of either the average pixel intensity or the coefficient of variance of pixel intensities within collar area. […]

IMR90 ER:RAS cells [2] = test: Unfolded protein response markers (CHOP, XBP1, ATF6) by high throughput microscopy; type: cell-based, human; conditions: 4OHT treated and control cells; FIGS. 13A-D
Procedure: as §1, §2

SMILES | Golgi dispersal (TGN46 distribution) (IMR90 ER:RAS cells [1]) | UPR activation (nuclear CHOP, XBP1, ATF6; percentage of cells above threshold) (IMR90 ER:RAS cells [2])
Cc1nn(C)c(C)c1CCOc1c(-c2ccc3c(c2)c(CN(C)C)nn3C)ccc(F)c1F [Compound 1, 1-(5-(3,4-difluoro-2-(2-(1,3,5-trimethyl-1H-pyrazol-4-yl)ethoxy)phenyl)-1-methyl-1H-indazol-3-yl)-N,N-dimethylmethanamine] | selectively caused Golgi dispersal on senescent cells | causes the induction of the unfolded protein response on senescent cells
Cc1c(NS(=O)(=O)c2c(Cl)cc(-c3ccnc(N4CCNCC4)c3)cc2Cl)c(CC(C)C)nn1C [Compound 2] | selectively caused Golgi dispersal on senescent cells | causes the induction of the unfolded protein response on senescent cells
